# Reference: US9557338B2 (SIGNAL PHARMACEUTICALS, LLC, priority 2012, dated 2017)
# Experiments:
# Format in all cases: cell-based
# [1] = tested on: p70S6K; experiment: Luminex multiplex assay, p70S6K phosphorylation in cell lysates; settings: PC3 cell line; read-out: Luminex p70S6K
# Excerpt: (§1) The multiplex Luminex assay format differs from conventional enzyme-linked immunosorbent assay (ELISA) in that the multiplex capture antibody is attached to a polystyrene bead whereas the ELISA capture antibody is attached to the microplate well. The use of the suspension bead-based technology enables the multiplexing capabilities of the Luminex assays. The xMAP® technology uses 5.6 micron polystyrene microspheres, which are internally dyed with red and infrared fluorophores of differing intensities. Each bead is given a unique number, or bead region, allowing differentiation of one bead from another. Beads covalently bound to different specific antibodies can be mixed in the same assay, utilizing a 96-well microplate format. At the completion of the sandwich immunoassay, beads can be read, using the Luminex 100™ or Luminex 200 detection system, in single-file by dual lasers for classification and quantification of each analyte. The Akt-Pathway Phospho 5-plex kit used was custom made and includes the ability to simultaneously measure p-GSK3β (S9), p-PRAS40(T246), and p-4E-BP1(T46).
# (§2) Cells were plated at the required density. The cells were treated with either Compound 1 or rapamycin over a range of concentrations for 1 hour in 5% CO2 at 37° C. Compound 1 and rapamycin were used at the same concentrations as for the proliferation assay. As for the cell proliferation assay, a reference standard was included in the assay for PC3 cells and the coefficient of variation for assay of p-GSK3β(S9) was 37.8% (n=30), p-PRAS40(T246) was 27.8% (n=30) and for p4E-BP1(T46) was 13.5% (n=4). For three cell lines (HCT-116, MDA-MB-231 and HT29) in the assay for phosphorylation of GSK3β, PRAS40 and 4E-BP1, IGF-I stimulation (500 ng/mL, recombinant human IGF-I) for the last 10 min of incubation was used. The media was aspirated from the wells and the plate was placed on ice. Then 35 μL of Lysis Buffer was added to each well and incubated on ice for at least 30 minutes. During the incubation, the standard curve for each phosphoprotein was prepared. The standards provided were reconstituted and serial dilutions were prepared according to the manufacturer's instructions. At the end of the cell lysis step, […] of the lysate was transferred to a V-bottom plate and spun at 4° C. at 2000 rpm for 5 minutes. Both the 1× Luminex bead and 1× detector antibody solutions were prepared during this time. The 1× bead solution was vortexed and 25 μL was added into each well of a black round bottom plate. Then 50 μL of the 1× detector antibody was added to each well. Fifty microliters (50 μL) of the prepared standards were added to the designated wells. Then 25 μL of the assay diluent was added to each well designated for the compound-treated cell lysates. At the end of the spin, 25 μL of cell lysate was added to the corresponding wells of the black assay plate. The assay plate was covered with the white plate lid and incubated for 3 hours at room temperature on an orbital shaker.
# (§3) Approximately 10-15 minutes prior to the end of the first incubation, the secondary antibody solution was prepared according to the vendor's protocol. Goat anti-rabbit R-phycoerythrin red fluorescent protein (RPE) supplied as a 10× concentrate was diluted to generate a 1× goat anti-rabbit RPE stock. The 96-well filter plate was pre-wet with 200 μL of 1× Working wash solution. At the end of the 3 hour incubation, a multichannel pipette was used to transfer the entire contents from each assay well into the wells of the filter plate. The liquid from the wells was removed by aspiration with the vacuum manifold. Then 200 μL of 1× Working wash solution was added into each well. The wash solution was aspirated using the vacuum manifold after 15-30 seconds. This wash step was repeated one time. The bottom of the plate was blotted on clean paper towels to remove residual liquid. […]
# [2] = tested on: Phospho-PRAS40(T246); experiment: Luminex multiplex assay, Phospho-PRAS40(T246); settings: PC3 cell line; read-out: Luminex PRAS40
# Excerpt: (§4) Determination of Phospho-GSK3β(S9), Phospho-PRAS40(T246) and Phospho-4E-BP1(T46) and the Effect of Compound 1 or Rapamycin.
# as §1, §2, §3
# [3] = tested on: Phospho-GSK3β(S9); experiment: Luminex multiplex assay, Phospho-GSK3β(S9); settings: PC3 cell line; read-out: Luminex GSK-3β
# Excerpt: as §4, §1, §2, §3
# [4] = tested on: GSK-3β; experiment: MSD assay, GSK-3β phosphorylation in cell lysates; settings: PC3 cell line; read-out: MSD GSK-3β
# [5] = tested on: Phospho-p70S6K (T389); experiment: MSD assay, phospho-p70S6K (T389) in cell lysates; settings: PC3 cell line; read-out: MSD p70S6K
# Protocol: Determination of Phospho-p70S6K (T389) in Cell Lysates.
# MSD® biomarker detection assays provide a rapid and convenient method for measuring the total and phosphorylated levels of protein targets within a single small-volume sample. In the assay, an antibody for a specific protein target is coated on one electrode (or spot) per well. The samples (cell lysates) are added to the well with a solution containing the detection antibody labeled with an electrochemiluminescent (ECL) compound, MSD SULFOTAG™ label, over the course of one or more incubation periods. The total protein present in the sample binds to the capture antibodies immobilized on the working electrode surface; recruitment of the labeled detection antibody by bound phospho-p70S6K completes the sandwich. MSD Read Buffer that provides the appropriate chemical environment for ECL is added and the plate is read using an MSD SECTOR™ Imager. Inside the SECTOR Imager, a voltage is applied to the plate electrodes which cause the labels bound to the electrode surface to emit light. The instrument measures intensity of the emitted light to afford a quantitative measure of the amount of phosphorylated protein present in the sample.
# Cells were plated in 96-well flat bottom plates at the required density determined for each cell line and the cells were allowed to equilibrate at 37° C., 5% CO2 overnight. The following day, the cells were treated with Compound 1 over a range of concentrations for one hour in 5% CO2 at 37° C. After the incubation period, the culture medium was removed carefully with an aspirator. The plate was placed on ice and 50 μL of 1× Tris Lysis Buffer were added to each well. The plate was placed on a shaker at 4° C. for one hour to lyse the cells. At that point, the plate was either frozen at −80° C. for later analysis or immediately assayed for phosphoproteins as described below. To monitor interassay variability, Compound 1 was compared among all plates as a reference standard.
# The assay plate was incubated with 150 μL of MSD Blocking Buffer for one hour with shaking at room temperature. The plates were washed 3 times with Tris Wash Buffer. Then 35 μL of cell lysate was added to the wells and incubated for one hour with shaking at room temperature. The solution was removed from the wells and the plate was washed 3 times with wash buffer. Twenty-five microliters of the appropriate antibody solution was then incubated for one hour with shaking at room temperature. The solution was removed from the wells and the plate was washed 3 times with wash buffer. Then 150 μL of 1×MSD Read Buffer T was added to each well. The plate was read on the SECTOR Imager plate reader.
Structure (SMILES),IC50 [1] [nM],IC50 [2] [nM],IC50 [3] [nM],IC50 [4] [nM],IC50 [5] [nM]
COC1CCC(N2C(=O)CNc3ncc(-c4ccc(C(C)(C)O)[n+]([O-])c4)nc32)CC1 (stereo not drawn) [C-98],825,> 1500,> 1500,–,–
Cc1nc(-c2nnc[nH]2)ccc1-c1cnc2c(n1)N(C)C(=O)CN2 [C-99],11,274,348,–,–
Nc1ccc(-c2cnc3c(n2)N(CCC2CCOCC2)C(=O)CN3)cn1 [C-100],15,564,608,–,–
O=C1CNc2ncc(-c3ccncc3)nc2N1CCC1CCOCC1 [C-101],469,> 1500,> 1500,–,–
CCN1C(=O)CNc2ncc(-c3cccc4[nH]ncc34)nc21 [C-102],> 1500,> 1500,> 1500,–,–
COCCN1C(=O)CNc2ncc(-c3cnc4[nH]ccc4c3)nc21 [C-104],< 1.5,106,168,–,–
COc1ccc(-c2cnc3c(n2)N(CCC2CCOCC2)C(=O)CN3)cn1 [C-105],252,> 1500,> 1500,–,–
O=C1CNc2ncc(-c3cncnc3)nc2N1CCC1CCOCC1 [C-106],> 1500,> 1500,> 1500,–,–
COCCN1C(=O)CNc2ncc(-c3ccc4cn[nH]c4c3)nc21 [C-107],143,> 1500,> 1500,–,–
COC1CCC(N2CC(=O)Nc3ncc(-c4ccc(-c5nc[nH]n5)c(F)c4C)nc32)CC1 (stereo not drawn) [C-108],5,31,37,–,–
COCCN1C(=O)CNc2ncc(-c3cccc4[nH]ncc34)nc21 [C-109],367,> 1500,> 1500,–,–
Cc1cc(-c2nc[nH]n2)ncc1-c1cnc2c(n1)N(C(C)C)C(=O)CN2 [C-121],–,–,–,15,–
O=C1CNc2ncc(-c3ccc(-c4nc[nH]n4)nc3)nc2N1CC1CCC(O)CC1 (stereo not drawn) [C-141],–,–,–,–,42
COC1CCC(CN2CC(=O)Nc3ncc(-c4ccc(-c5ncn[nH]5)nc4)nc32)CC1 (stereo not drawn) [C-156],–,–,–,–,10
Cc1cc(-c2nc[nH]n2)c(F)cc1-c1cnc2c(n1)N(CC1CCC(O)CC1)CC(=O)N2 (stereo not drawn) [C-157],–,–,–,–,37
COC1CCC(CN2CC(=O)Nc3ncc(-c4ccc(-c5nc[nH]n5)nc4)nc32)CC1 (stereo not drawn) [C-158],–,–,–,–,36
CO[C@H]1CC[C@@H](CN2C(=O)CNc3ncc(-c4ccc(-c5nc[nH]n5)nc4)nc32)CC1 [C-165],–,–,–,3,–
